Test system: PD patient-derived skin fibroblasts
Experiment: Autophagic flux in Pompe disease fibroblasts
Type: cell-based, human
Protocol: FIG. 15 includes a micrograph and a vertical bar graph showing autophagic flux in PD patient-derived skin fibroblasts, serum starved and treated (or not) with 50 μM 144DG11 (indicated as comp. A).
144DG11 can activate autophagy in the lysosomal storage disease (LSD) Pompe disease (PD) in which autophagy is perturbed (FIG. 15). […] This ratio serves as the most accepted marker for autophagy and autophagic flux. […] These observations indicate that, as in the GSD APBD, 144DG11 can activate autophagy also in the typical LSD PD in which autophagy is disturbed.

CC[C@]1(O)C[C@@H]2CN(CCc3c([nH]c4ccccc34)[C@@](C(=O)OC)(c3cc4c(cc3OC)N(C)[C@H]3[C@@](O)(C(=O)OC)[C@H](OC(C)=O)[C@]5(CC)C=CCN6CC[C@]43[C@@H]65)C2)C1 [vinblastine, reference compound]
ratio of LC3II to LC3I: increased

Reference: patent US20240139167A1, “LYSOSOME-ASSOCIATED MEMBRANE PROTEIN TARGETING COMPOUNDS AND USES THEREOF” (HADASIT MEDICAL RESEARCH SERVICES AND DEVELOPMENT LTD., priority 2021, published 2024)
